US20220356174A1, “PYRIDIN-2-ONE COMPOUNDS USEFUL AS SMARCA2 ANTAGONISTS” (Epizyme, Inc., priority 2018, published 2022)
Where two headings read alike, the source gives them in different places.

Tests used:
[1] = target: T1, FL-SMARCA2 (full-length human SMARCA2 isoform 1) (Homo sapiens, UniProt P51531); test: SMARCA2 ATPase activity assay (ADP-Glo, chicken mononucleosome substrate); assay type: biochemical; details: ATP 250 uM
T1 construct: FLAG tag (YKDDDDK) (C); made in house; host or cells: Sf21 insect cells (baculovirus, pFastBacI)
Source text: Molecular Biology: Full-length human SMARCA2 isoform 1 (P51531) transcript clone was amplified from a cDNA library incorporating an N-terminal HIS tag ([…]) fused directly to Ser2 of SMARCA2 and a C-FLAG tag (YKDDDDK) fused directly to Glu1590 of SMARCA2. The amplified gene was subcloned into pFastBacI (Life Technologies).
Protein Expression: Recombinant baculovirus were generated and protein over-expression was accomplished by infecting exponentially growing Sf21 insect cell culture at 1.24×10^6 cell/ml with an MOI of 0.1. Infections were carried out for 76 hours, harvested by centrifugation, and stored at −80° C. for purification.
Expressed full-length SMARCA2 was purified from cell paste by FLAG affinity chromatography followed by anion exchange chromatography. The protein was dialyzed into a storage buffer containing 25 mM HEPES, 300 mM KCl, 10% Glycerol, pH 7.9, 1 mM TCEP and 0.01% Tween-20. The purity of the protein was measured as 74% using micro-capillary based gel electrophoresis.

FL-SMARCA4 = FL-SMARCA4 (Homo sapiens, UniProt P51532); test: SMARCA4 ATPase activity assay (ADP-Glo, chicken mononucleosome substrate)
Description: Substrates. Chicken erythrocyte mononucleosomes were prepared from fresh chicken blood collected into anticoagulant and filtered through cheesecloth. The filtered chicken blood was diluted in buffer A (10 mM Tris-HCl, pH 7.4, 10 mM NaCl, 3 mM MgCl2) and centrifuged at 500 g for 15 minutes to collect the erythrocytes. Erythrocyte nuclei were harvested by resuspending the pellets in buffer A containing 0.3% NP-40 detergent. The mixture was stirred with a magnetic bar for 10 mins and centrifuged at 4000 g for 10 minutes. Resuspension, stirring and centrifugation was repeated twice more before the final nuclei pellet was resuspended in buffer A+0.3% NP-40 and stored at −80° C. until purification. For nucleosome purification, nuclei aliquots were rapidly thawed and washed five times with buffer B (10 mM Tris-HCl, pH 7.4, 1 mM CaCl2), 1 mM PMSF) and collected by centrifugation at 2800 g for 10 minutes. Pellets were resuspended in buffer B and treated with 100 U/mL micrococcal nuclease for 40 minutes at 37° C. The reaction was terminated by the addition of 2 mM EDTA and was centrifuged at 2800 g for 10 minutes. The nuclei were then lysed by resuspending the pellet in 1 mM EDTA and 1 mM PMSF and passing the mixture through a 22G needle 4 to 5 times. The solution was then centrifuged at 15,000 g for 20 minutes and the supernatant was collected. The remaining pellet was lysed through the syringe twice more and the supernatants were pooled after centrifugation. The pooled supernatants were further purified by size exclusion chromatography (GE Sephacryl S300 HR 50/100) in buffer C (10 mM HEPES, pH 7.5, 10 mM KCl, 1 mM EDTA, 1 mM PMSF, 10% glycerol). Fractions were analyzed by agarose gel electrophoresis and SDS-PAGE and fractions containing mononucleosomes were pooled and stored at −80° C.
The SMARCA2 or SMARCA4 ATPase assays were identical. The SMARCA2 or SMARCA4 ATPase assays were performed in a buffer consisting of 20 mM Bicine (pH 7.5), 10 mM KCl, 1 mM MgCl2, 1 mM TCEP, 0.005% BSG, and 0.002% Tween 20, prepared on the day of use. Compounds in 100% DMSO were 3-fold serially diluted to produce a 10 point curve for IC50 determination and 0.2 uL were transferred into polypropylene 384-well V-bottom plates (Greiner) using an Echo liquid handler (Labcyte). DMSO (0.2 uL) was added to Columns 11, 12, 23, 24, rows A-H for the maximum signal control and 0.2 uL doxorubicin, a known DNA intercalator, was added to columns 11, 12, 23, 24, rows I-P for the minimum signal control. The SMARCA2 or SMARCA4 enzyme (10 uL) was added to the compounds and allowed to incubate with the compounds for 30 min at room temperature. The SMARCA2 or SMARCA4 ATPase assay was initiated by the addition of 10 uL chicken mononucleosome and ATP mixture (final volume=20 uL). The final concentrations of the assay components were as follows: SMARCA2 or SMARCA4 was 5 nM, ATP was 250 uM, chicken mononucleosome was 10 nM, doxorubicin in the minimum signal control wells was 50 uM, and the DMSO concentration was 1%. 5 uL of the reaction mixture was transferred from the 384-well polypropylene plate to a white opaque polystyrene 384-well plate. At 60 minutes, the assays were terminated by the addition of 5 uL ADP-Glo™ Reagent (Promega). After 40 minutes, the luciferase reaction was initiated by the addition of 10 uL of Kinase Detection Reagent (Promega) and incubated for 1 hour. The ADP product generated from the SMARCA2 or SMARCA4 ATPase reaction was determined via luminescence intensity.

[2] = Table 3d.1, ATPase assay, enzyme 5 nM, chicken mononucleosome 10 nM, 30 min preincubation, read-out: FL-SMARCA2 IC>50
[3] = Table 3.1, ATPase assay, enzyme 5 nM, chicken mononucleosome 10 nM, 30 min preincubation
[4] = FL-SMARCA4 IC50, Table 3.2, ATPase assay, enzyme 5 nM, ATP 250 uM, chicken mononucleosome 10 nM, 30 min preincubation
[5] = Table 3b.1, SMARCA2 5 nM, mononucleosome 10 nM
[6] = FL-SMARCA4 IC50, Table 3b.2, SMARCA4 5 nM, ATP 250 uM, mononucleosome 10 nM
[7] = Table 3a.1, SMARCA2 5 nM, mononucleosome 10 nM
[8] = FL-SMARCA4 IC50, Table 3a.2, SMARCA4 5 nM, ATP 250 uM, mononucleosome 10 nM
[9] = Table 3c.1, ATPase assay, enzyme 5 nM, chicken mononucleosome 10 nM, 30 min preincubation
[10] = FL-SMARCA4 IC>50, Table 3c.2, ATPase assay, enzyme 5 nM, ATP 250 uM, chicken mononucleosome 10 nM, 30 min preincubation

Chain of FL-SMARCA4 (P51532 whole entry): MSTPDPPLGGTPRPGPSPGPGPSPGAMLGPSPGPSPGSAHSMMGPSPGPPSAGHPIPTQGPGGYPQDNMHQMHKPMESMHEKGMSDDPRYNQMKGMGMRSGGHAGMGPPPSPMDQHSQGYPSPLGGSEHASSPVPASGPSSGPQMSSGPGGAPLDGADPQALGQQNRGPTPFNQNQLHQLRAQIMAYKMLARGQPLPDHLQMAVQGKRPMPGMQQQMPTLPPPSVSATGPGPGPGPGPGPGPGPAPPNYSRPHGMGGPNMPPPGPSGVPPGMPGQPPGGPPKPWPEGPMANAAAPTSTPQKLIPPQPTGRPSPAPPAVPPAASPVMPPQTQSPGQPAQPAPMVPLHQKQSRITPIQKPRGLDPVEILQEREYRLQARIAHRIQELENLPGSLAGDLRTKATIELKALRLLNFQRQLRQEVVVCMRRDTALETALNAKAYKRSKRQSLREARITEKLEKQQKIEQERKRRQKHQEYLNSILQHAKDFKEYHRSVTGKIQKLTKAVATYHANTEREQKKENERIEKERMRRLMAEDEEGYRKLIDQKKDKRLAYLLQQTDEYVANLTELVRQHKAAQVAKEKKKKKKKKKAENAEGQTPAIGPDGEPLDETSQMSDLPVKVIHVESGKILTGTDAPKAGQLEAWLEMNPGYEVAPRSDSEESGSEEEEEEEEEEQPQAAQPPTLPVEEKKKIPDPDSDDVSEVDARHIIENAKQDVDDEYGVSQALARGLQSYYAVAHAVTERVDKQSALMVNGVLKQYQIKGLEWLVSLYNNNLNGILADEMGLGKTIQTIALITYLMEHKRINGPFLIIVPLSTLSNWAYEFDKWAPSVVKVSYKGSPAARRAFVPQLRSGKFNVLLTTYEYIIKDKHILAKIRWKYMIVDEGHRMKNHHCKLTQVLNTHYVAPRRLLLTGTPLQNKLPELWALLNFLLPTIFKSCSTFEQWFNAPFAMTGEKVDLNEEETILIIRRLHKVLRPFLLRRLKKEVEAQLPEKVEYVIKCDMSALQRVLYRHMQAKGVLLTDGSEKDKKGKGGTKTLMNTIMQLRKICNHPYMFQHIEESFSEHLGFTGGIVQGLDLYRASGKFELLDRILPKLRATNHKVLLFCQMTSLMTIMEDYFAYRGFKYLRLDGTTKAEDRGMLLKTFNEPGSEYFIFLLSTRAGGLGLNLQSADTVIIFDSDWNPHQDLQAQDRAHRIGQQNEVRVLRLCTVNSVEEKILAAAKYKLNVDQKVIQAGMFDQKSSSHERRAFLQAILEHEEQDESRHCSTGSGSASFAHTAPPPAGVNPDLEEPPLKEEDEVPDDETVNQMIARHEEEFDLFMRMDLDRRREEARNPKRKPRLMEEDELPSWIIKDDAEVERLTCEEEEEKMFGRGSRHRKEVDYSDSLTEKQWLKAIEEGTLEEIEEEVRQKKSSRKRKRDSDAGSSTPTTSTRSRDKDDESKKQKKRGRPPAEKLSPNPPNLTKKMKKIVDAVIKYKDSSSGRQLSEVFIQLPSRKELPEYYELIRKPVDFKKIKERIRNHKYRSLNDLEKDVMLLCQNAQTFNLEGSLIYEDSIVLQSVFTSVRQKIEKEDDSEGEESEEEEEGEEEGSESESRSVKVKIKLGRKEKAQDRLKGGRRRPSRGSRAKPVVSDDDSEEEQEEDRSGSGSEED
T1 sequence (P51531 with tags, fused parts or gaps): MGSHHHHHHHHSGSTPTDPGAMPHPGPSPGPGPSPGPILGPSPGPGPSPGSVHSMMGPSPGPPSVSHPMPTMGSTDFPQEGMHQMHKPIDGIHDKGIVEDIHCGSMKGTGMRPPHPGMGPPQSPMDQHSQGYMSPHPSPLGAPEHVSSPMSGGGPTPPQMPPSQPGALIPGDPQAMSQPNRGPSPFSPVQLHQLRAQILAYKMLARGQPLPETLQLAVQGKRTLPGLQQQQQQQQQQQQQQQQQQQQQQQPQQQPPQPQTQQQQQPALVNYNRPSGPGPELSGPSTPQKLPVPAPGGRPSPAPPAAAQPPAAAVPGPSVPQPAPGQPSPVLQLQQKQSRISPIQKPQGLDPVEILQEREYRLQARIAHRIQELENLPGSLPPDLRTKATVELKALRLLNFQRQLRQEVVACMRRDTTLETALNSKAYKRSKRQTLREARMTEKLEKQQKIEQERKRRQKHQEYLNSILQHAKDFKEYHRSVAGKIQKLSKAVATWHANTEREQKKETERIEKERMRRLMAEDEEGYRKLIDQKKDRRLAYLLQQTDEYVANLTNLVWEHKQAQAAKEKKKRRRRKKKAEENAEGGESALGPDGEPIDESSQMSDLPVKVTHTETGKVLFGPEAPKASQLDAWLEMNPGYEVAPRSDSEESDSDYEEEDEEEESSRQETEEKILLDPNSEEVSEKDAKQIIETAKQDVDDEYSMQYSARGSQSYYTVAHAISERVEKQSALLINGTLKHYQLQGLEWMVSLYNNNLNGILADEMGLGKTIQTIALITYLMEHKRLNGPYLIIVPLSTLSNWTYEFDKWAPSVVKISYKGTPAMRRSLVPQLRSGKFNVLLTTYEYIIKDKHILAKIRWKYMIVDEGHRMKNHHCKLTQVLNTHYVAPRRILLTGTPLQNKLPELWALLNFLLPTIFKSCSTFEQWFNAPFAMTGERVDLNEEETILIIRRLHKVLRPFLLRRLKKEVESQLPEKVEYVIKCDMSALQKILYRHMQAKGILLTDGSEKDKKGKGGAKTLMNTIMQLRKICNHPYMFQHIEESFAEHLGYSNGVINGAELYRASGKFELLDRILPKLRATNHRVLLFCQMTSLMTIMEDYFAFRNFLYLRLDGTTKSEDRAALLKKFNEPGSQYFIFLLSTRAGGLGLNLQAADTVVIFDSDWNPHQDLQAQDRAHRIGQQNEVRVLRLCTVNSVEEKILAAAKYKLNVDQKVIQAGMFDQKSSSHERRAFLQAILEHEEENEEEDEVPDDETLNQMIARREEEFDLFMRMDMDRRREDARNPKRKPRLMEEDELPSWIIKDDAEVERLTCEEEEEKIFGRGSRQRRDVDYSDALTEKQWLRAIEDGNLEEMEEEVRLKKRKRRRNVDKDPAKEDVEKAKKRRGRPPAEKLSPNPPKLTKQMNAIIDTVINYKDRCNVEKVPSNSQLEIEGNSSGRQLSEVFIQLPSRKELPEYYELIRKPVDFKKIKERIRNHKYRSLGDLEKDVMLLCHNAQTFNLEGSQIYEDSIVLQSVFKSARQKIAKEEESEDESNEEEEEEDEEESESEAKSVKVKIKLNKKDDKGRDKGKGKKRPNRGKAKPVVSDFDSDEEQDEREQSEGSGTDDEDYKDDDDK

Compound | IC50 [1, 3] [µM] | IC50 (FL-SMARCA4; [4]) [µM] | also measured
O=C(Nc1ccc(=O)n(CC(F)(F)F)n1)c1cc(Cl)c(Cl)s1 [Compound 21d] |  |  | IC50 [1, 2]: 16.7 µM; IC50 (FL-SMARCA4; FL-SMARCA4 IC50): > 50 µM
CCn1cc(NC(=O)c2cc(Cl)c(Cl)s2)c(F)cc1=O [Compound 31d] |  |  | IC50 [1, 2]: 48.1 µM; IC50 (FL-SMARCA4; FL-SMARCA4 IC50): > 50 µM
O=C(Nc1cc(F)c(=O)n(CCn2ccnc2)c1)c1cc(Cl)c(Cl)s1 [Compound 274] | > 50 | > 50 | 
CCn1cc(NC(=O)c2snc(Cl)c2Cl)ccc1=O [Compound 34] | 28.5 |  | 
O=C(Nc1cc(F)c(=O)n(CC(F)F)c1)c1cc(Cl)c(C#Cc2cccnc2)s1 [Compound 53d] |  |  | IC50 [1, 2]: > 50 µM; IC50 (FL-SMARCA4; FL-SMARCA4 IC50): > 50 µM
CCn1cc(NC(=O)c2cnc(C#N)[nH]2)ccc1=O [Compound 183] | > 50 | > 50 | 
CCn1cc(NC(=O)c2cccc(Cl)c2)ccc1=O [Compound 6b] |  |  | IC50 [1, 5]: > 50 µM; IC50 (FL-SMARCA4; [6]): > 50 µM
CCn1cc(NC(=O)c2cc(Cl)c(Cl)s2)cc(OCCN2CCOCC2)c1=O [Compound 122] | > 50 | > 50 | 
CCn1cc(NC(=O)c2cc(Cl)c(C)s2)ccc1=O [Compound 73] | 11.5 | 35.6 | 
CO[C@H]1C[C@@H](C(=O)Nc2cc(Cl)c(=O)n(C)c2)N(C)C1 [Compound 11a] |  |  | IC50 [1, 7]: > 50 µM; IC50 (FL-SMARCA4; [8]): > 50 µM
CCc1cc(C(=O)Nc2ccc(=O)n(CC)c2)sc1Cl [Compound 91] | > 50 | > 50 | 
O=C(Nc1cc(F)c(=O)n(CCF)c1)c1cc(Cl)n[nH]1 [Compound 155] | 0.163 | 0.529 | 
Cn1c(C(=O)Nc2ccc(=O)n(C3CC3)c2)cc(Cl)c1Cl [Compound 41] | > 50 |  | 
C[S+]([O-])c1cc(C(=O)Nc2cc(F)c(=O)n(CC(F)F)c2)sc1Cl (centres unmarked) [Compound 2c] |  |  | IC50 [1, 9]: 24.6 µM; IC50 (FL-SMARCA4; [10]): > 50 µM
CCn1cc(NC(=O)c2cccc(C)n2)ccc1=O [Compound 28a] |  |  | IC50 [1, 7]: > 50 µM; IC50 (FL-SMARCA4; [8]): > 50 µM
O=C(Nc1cc(F)c(=O)n(CCF)c1)c1cnc(Br)o1 [Compound 252] | > 50 | > 50 | 
CCC(CC)N1CC(C(=O)Nc2cc(Cl)c(=O)n(C)c2)CC1=O (centres unmarked) [Compound 12a] |  |  | IC50 [1, 7]: > 50 µM; IC50 (FL-SMARCA4; [8]): > 50 µM
CNC(=O)c1cc(C(=O)Nc2cc(F)c(=O)n(CCF)c2)sc1C(F)(F)F [Compound 305] | > 50 | > 50 | 
CCn1cc(NC(=O)c2cn(C)nc2C(F)(F)F)ccc1=O [Compound 31] |  | > 50 | 
CCN(CC)c1nc2sc(C(=O)Nc3cc(F)c(=O)n(CCF)c3)cc2s1 [Compound 61a] |  |  | IC50 [1, 7]: > 50 µM; IC50 (FL-SMARCA4; [8]): > 50 µM
CCn1cc(NC(=O)c2ccc(Cl)n2C)ccc1=O [Compound 18] | 19.5 | > 50 | 
Cn1c(C(=O)Nc2cc(Cl)c(=O)n(CCF)c2)cc(Cl)c1Cl [Compound 134] | 0.148 | 0.631 | 
O=C(Nc1ccc(=O)n(CC(F)(F)F)n1)c1cnc(Cl)s1 [Compound 23d] |  |  | IC50 [1, 2]: 12.5 µM; IC50 (FL-SMARCA4; FL-SMARCA4 IC50): 15.3 µM

Compound | IC50 [1, 3] [µM] | IC50 (FL-SMARCA4; [4]) [µM] | also measured
O=C(Nc1cc(F)c(=O)n(CC(F)F)c1)[C@H]1CCCN1 [Compound 16c] |  |  | IC50 [1, 9]: > 50 µM; IC50 (FL-SMARCA4; [10]): > 50 µM
CCn1cc(NC(=O)c2cn3cc(Cl)c(F)cc3n2)ccc1=O [Compound 45a] |  |  | IC50 [1, 7]: > 50 µM; IC50 (FL-SMARCA4; [8]): > 50 µM
CCn1cc(NC(=O)c2ccc(C)n2C(F)F)ccc1=O [Compound 52] | > 50 | > 50 | 
CCn1cc(NC(=O)c2nc(Br)sc2C)ccc1=O [Compound 36] | > 50 | > 50 | 
Cc1cc(C)n(-c2ccc(C(=O)Nc3cn(C)c(=O)cc3C)cn2)n1 [Compound 2d] |  |  | IC50 [1, 2]: > 50 µM; IC50 (FL-SMARCA4; FL-SMARCA4 IC50): > 50 µM
CCn1cc(NC(=O)c2nc(-c3ccc(OC)cc3)oc2C)ccc1=O [Compound 3] | > 50 | > 50 | 
CC(C)COc1ncccc1C(=O)Nc1cc(Cl)c(=O)n(C)c1 [Compound 2a] |  |  | IC50 [1, 7]: > 50 µM; IC50 (FL-SMARCA4; [8]): > 50 µM
O=C(Nc1ccc(=O)n(-c2ccccc2)c1)c1ccc(Br)s1 [Compound 50] | > 50 |  | 
CCn1cc(NC(=O)c2cc(Cl)c(Cl)[nH]2)ccc1=O [Compound 17] | 4.06 | 26.6 | 
Cn1c(C(=O)Nc2cc(Cl)c(=O)n(CCF)c2)cc(Cl)c1C#N [Compound 162] | 0.194 | 0.94 | 
N#Cc1nc(C(=O)Nc2cc(F)c(=O)n(CC(F)F)c2)co1 [Compound 43d] |  |  | IC50 [1, 2]: > 50 µM; IC50 (FL-SMARCA4; FL-SMARCA4 IC50): > 50 µM
O=C(Nc1cc(F)c(=O)n(CCF)c1)c1cc(Cl)c(C#CCN2CCCC2)s1 [Compound 276] | 28.7 | 47.1 | 
O=C(Nc1cc(F)c(=O)n(CCF)c1)c1cnc(-n2ccnc2)s1 [Compound 271] | > 50 | > 50 | 
CCn1cc(NC(=O)c2cc(Cl)c(Cl)s2)c(C)cc1=O [Compound 26d] |  |  | IC50 [1, 2]: > 50 µM; IC50 (FL-SMARCA4; FL-SMARCA4 IC50): > 50 µM
CCn1cc(NC(=O)c2cc(C3CC3)on2)ccc1=O [Compound 24] |  | > 50 | 
O=C(Nc1cc(-c2ncco2)c(=O)n(CC(F)F)c1)c1sc(C(F)(F)F)cc1Cl [Compound 30c] |  |  | IC50 [1, 9]: > 50 µM; IC50 (FL-SMARCA4; [10]): > 50 µM
CCn1cc(NC(=O)c2cc(Cl)c(Cl)s2)cc(OCCN2CCN(C)CC2)c1=O [Compound 119] | > 50 | > 50 | 
CCn1cc(NC(=O)c2csc(NC3CCCC3)n2)ccc1=O [Compound 202] | > 50 | > 50 | 
O=C(Nc1cc(NCCn2ccnc2)c(=O)n(CCF)c1)c1cc(Cl)c(Cl)s1 [Compound 263] | 21.6 | 27.4 | 
CCn1cc(NC(=O)c2cc(Cl)c(Cl)n2C(C)C)ccc1=O [Compound 61] | > 50 | > 50 | 
Cn1c(C(=O)Nc2cc(Cl)c(=O)n(CC(F)(F)F)c2)cnc1Cl [Compound 195] | 7.59 | 29.8 | 
O=C(Nc1cc(-c2cnco2)c(=O)n(CC(F)F)c1)c1cc(Cl)c(C(F)(F)F)s1 [Compound 101c] |  |  | IC50 [1, 9]: > 50 µM; IC50 (FL-SMARCA4; [10]): > 50 µM
CN1Cc2cc(C(=O)Nc3cc(F)c(=O)n(CC(F)F)c3)sc2C(F)(F)C1 [Compound 115c] |  |  | IC50 [1, 9]: > 50 µM; IC50 (FL-SMARCA4; [10]): > 50 µM

Compound | IC50 [1, 3] [µM] | IC50 (FL-SMARCA4; [4]) [µM] | also measured
Cc1cc(=O)n(C)cc1NC(=O)[C@@H]1CCCO[C@H]1c1cn[nH]c1 [Compound 7d] |  |  | IC50 [1, 2]: > 50 µM; IC50 (FL-SMARCA4; FL-SMARCA4 IC50): > 50 µM
O=C(Nc1cc(F)c(=O)n(CC(F)F)c1)c1cc2c(s1)C(F)(F)CNC2 [Compound 114c] |  |  | IC50 [1, 9]: 30.5 µM; IC50 (FL-SMARCA4; [10]): > 50 µM
CCn1cc(NC(=O)[C@@H]2CC[C@H](Cl)C2)ccc1=O [Compound 15b] |  |  | IC50 [1, 5]: > 50 µM; IC50 (FL-SMARCA4; [6]): > 50 µM
O=C(Nc1cc(F)c(=O)n(CC(F)F)c1)c1cc(N2CCN(c3ccncc3)CC2)c(Cl)s1 [Compound 119c] |  |  | IC50 [1, 9]: 6.17 µM; IC50 (FL-SMARCA4; [10]): 16.1 µM
CCn1cc(NC(=O)c2cc(C)sc2C)ccc1=O [Compound 33] | > 50 | > 50 | 
CCn1cc(NC(=O)c2csnn2)ccc1=O [Compound 29] |  | > 50 | 
CCn1cc(NC(=O)c2cc(C)n[nH]2)ccc1=O [Compound 27] |  | > 50 | 
CCn1cc(NC(=O)c2csc(C(F)(F)F)n2)ccc1=O [Compound 25] |  | > 50 | 
N[C@H]1CC[C@H](C#Cc2cc(C(=O)Nc3cc(F)c(=O)n(CC(F)F)c3)sc2Cl)CC1 [Compound 66d] |  |  | IC50 (FL-SMARCA4; FL-SMARCA4 IC50): 1.29 µM
CCn1cc(NC(=O)c2ncc(Br)s2)ccc1=O [Compound 49] | > 50 |  | 
CCn1c(C(=O)Nc2ccc(=O)n(CC)c2)cc(Cl)c1Cl [Compound 42] | 12.6 |  | 
O=C(O)c1cccc(C#Cc2cc(C(=O)Nc3cc(F)c(=O)n(CC(F)F)c3)ccn2)c1 [Compound 132c] |  |  | IC50 (FL-SMARCA4; [10]): 11.3 µM
CCn1cc(NC(=O)c2ccc(I)s2)ccc1=O [Compound 46] | 11.1 |  | 
CCn1cc(NC(=O)c2cn(C)nc2C(F)F)ccc1=O [Compound 28] |  | > 50 | 
CCn1cc(NC(=O)c2cnc(Cl)[nH]2)ccc1=O [Compound 99] | > 50 |  | 
CCn1cc(NC(=O)c2cc(Br)cs2)ccc1=O [Compound 45] | 43.1 |  | 
N#Cc1cc(C(=O)Nc2cc(C#N)c(=O)n(CCF)c2)sc1Cl [Compound 321] |  | 0.635 | 
CCn1cc(NC(=O)c2cc(Cl)n(C)n2)ccc1=O [Compound 100] | > 50 |  | 
CCn1cc(NC(=O)c2nc(Br)cs2)ccc1=O [Compound 30] |  | > 50 | 
CCn1cc(NC(=O)c2cnc3ccccn23)ccc1=O [Compound 19a] |  |  | IC50 [1, 7]: > 50 µM
CCn1cc(NC(=O)c2cc(C)oc2C)ccc1=O [Compound 23] |  | > 50 | 
